Results as given in US20080261923A1, “Alkene Mimics” (priority 2004, published 2008).

Biological target: human Pin1 (Homo sapiens, UniProt Q13526)
Assay: IC50 measurement of inhibitors for Pin1 (chymotrypsin-coupled peptidyl-prolyl isomerase assay, SucAEPF-pNA)
Format: biochemical
Conditions: cis substrate SucAEPF-pNA 43.2 μM, 31 mM HEPES pH 7.8, 4° C., absorbance at 390 nm; read-out: IC50 value for the inhibition of human Pin1 peptidyl-prolyl isomerase activity
Method: Measurement of human Pin1 peptidyl-prolyl isomerase activity. The concentration of the cis conformation of substrate, SucAEPF-pNA, was determined by the UV absorbance of pNA (ε=12250 at […]) after cleavage by α-chymotrypsin. The cis component of the substrate was approximately 51%. The assay buffer (1050 μL of 35 mM HEPES, pH 7.8 at 0° C.; final concentration 31 mM HEPES) and Pin1 (10 μL of a 8.0 μM stock solution, concentration measured by Bradford assay, final concentration 67 nM) were pre-equilibrated in the spectrometer until the temperature reached 4.0° C. Immediately before the assay was started, 120 μL of ice-cooled α-chymotrypsin solution (60 mg/mL in 0.001 M HCl; final concentration 6 mg/mL) was added. Additional substrate solvent (0.47 M LiCl/TFE) was added as needed to bring the total volume of substrate and cosolvent to 10 μL. The peptide substrate, dissolved in dry 0.47 M LiCl/TFE, was added to the cuvette via syringe and the solution was mixed vigorously by inversion 3 times. The final volume in a semi micro 1 cm path length polystyrene cell was 1.2 mL.
IC50 measurement of inhibitors for Pin1. Human Pin1 was assayed at a cis substrate concentration of 43.2 μM. […] After a mixing delay of 6-8 sec, the progress of the reaction was monitored by absorbance at 390 nm for 90 sec.

Chain of human Pin1 (Q13526 whole entry): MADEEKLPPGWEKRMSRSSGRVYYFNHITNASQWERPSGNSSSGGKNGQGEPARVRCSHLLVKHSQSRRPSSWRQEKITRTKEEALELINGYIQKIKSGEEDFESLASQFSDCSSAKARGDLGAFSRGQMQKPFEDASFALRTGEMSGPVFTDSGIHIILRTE

IC50: 970 nM
Compound: CC(=O)N[C@@H](Cc1ccccc1)C(=O)N[C@@H](Cc1ccc(O)cc1)C(=O)N[C@H](/C=C1/CCC[C@H]1C(=O)N[C@@H](CCCNC(=N)N)C(N)=O)COP(=O)(O)O [Ac-Phe-Tyr-phosphoSer-Ψ[(Z)CH═C]-Pro-Arg-NH2]
